Earlier results as cited in patent US7807404B2, “Mutated truncated mt-pfkA gene for the synthesis of active shorter fragment of 6-phosphofructo-1-kinase” (Kemijski Institut, priority 2006, dated 2010).

How the values were obtained:
PFK1 [1] = settings: citrate 10 mM
[2] = test system: PFK1 with 8 amino acid residues cleaved from the C-terminal part
PFK1 [3] = molecular target: T1, PFK1 (Oryctolagus cuniculus, UniProt P00511)
T1 construct: the enzyme, isolated from the rabbit muscle; host or cells: rabbit muscle
T1 sequence (P00511 2-780 limits assumed): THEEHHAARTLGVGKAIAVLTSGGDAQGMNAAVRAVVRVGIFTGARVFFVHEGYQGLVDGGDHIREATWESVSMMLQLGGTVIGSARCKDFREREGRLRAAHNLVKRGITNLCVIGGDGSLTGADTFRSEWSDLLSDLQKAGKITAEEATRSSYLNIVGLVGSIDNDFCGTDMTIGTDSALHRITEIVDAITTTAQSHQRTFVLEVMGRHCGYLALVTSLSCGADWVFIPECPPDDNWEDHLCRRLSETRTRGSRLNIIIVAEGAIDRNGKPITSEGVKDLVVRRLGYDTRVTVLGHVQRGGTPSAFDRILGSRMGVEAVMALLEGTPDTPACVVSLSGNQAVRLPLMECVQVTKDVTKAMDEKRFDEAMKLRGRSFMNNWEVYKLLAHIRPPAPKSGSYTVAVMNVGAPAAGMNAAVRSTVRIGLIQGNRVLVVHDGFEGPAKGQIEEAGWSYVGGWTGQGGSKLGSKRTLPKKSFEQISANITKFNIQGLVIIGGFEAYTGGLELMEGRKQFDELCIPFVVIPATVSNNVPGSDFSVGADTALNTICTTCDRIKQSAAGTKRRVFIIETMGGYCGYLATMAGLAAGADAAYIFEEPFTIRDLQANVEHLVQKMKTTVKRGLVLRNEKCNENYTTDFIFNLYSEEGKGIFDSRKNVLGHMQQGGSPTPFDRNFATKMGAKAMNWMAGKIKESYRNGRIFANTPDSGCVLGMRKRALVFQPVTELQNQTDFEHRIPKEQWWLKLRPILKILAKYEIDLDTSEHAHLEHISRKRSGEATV

PFK1 [4] = molecular target: T2, PFK1 (Aspergillus niger, UniProt P78985); settings: citrate 10 mM
T2 construct: The PFK1 isolated from Aspergillus niger cells; host or cells: Aspergillus niger cells
T2 sequence (P78985 whole entry): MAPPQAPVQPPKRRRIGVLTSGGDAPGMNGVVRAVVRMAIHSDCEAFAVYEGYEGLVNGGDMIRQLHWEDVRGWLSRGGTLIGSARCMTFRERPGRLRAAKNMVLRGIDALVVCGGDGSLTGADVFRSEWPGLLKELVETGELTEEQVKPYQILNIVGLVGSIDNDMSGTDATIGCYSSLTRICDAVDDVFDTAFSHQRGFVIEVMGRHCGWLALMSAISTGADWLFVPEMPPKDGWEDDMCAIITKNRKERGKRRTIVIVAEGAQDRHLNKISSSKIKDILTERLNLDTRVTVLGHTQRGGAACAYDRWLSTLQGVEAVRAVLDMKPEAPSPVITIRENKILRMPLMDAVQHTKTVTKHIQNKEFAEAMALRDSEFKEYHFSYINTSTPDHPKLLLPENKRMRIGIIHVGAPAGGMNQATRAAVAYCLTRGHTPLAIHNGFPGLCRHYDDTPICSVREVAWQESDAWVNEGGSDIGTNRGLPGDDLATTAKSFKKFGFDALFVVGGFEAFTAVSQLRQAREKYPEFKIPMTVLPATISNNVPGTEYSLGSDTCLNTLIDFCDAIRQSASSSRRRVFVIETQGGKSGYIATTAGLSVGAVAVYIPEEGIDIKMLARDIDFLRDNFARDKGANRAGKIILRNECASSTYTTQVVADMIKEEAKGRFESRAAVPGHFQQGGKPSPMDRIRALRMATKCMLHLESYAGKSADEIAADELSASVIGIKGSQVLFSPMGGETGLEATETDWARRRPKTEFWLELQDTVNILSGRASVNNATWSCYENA

O=C(O)CC(O)(CC(=O)O)C(=O)O [citrate]
maximal velocity retained (PFK1 [1]): 20%
citrate concentration at which the enzyme lost its activity [2]: 10 mM
citrate concentration at which the enzyme was completely inactivated (PFK1 [3]): 2.5 mM
effect on catalytic activity (PFK1 [4]): almost prevented its catalytic activity
